# Laboratory results from patent US8114843B2, “Photoreactive regulator of protein function and methods of use thereof” (The Regents of the University of California, priority 2005, dated 2012).
# Legend:
# [1] = tested on: cultured hippocampal neurons; test: Live/Dead assay after PAL treatment; format: cell-based; conditions: 200 μM
# Description: Live/Dead assay. After PAL treatment, hippocampal neurons were processed for the live dead assay (Molecular Probes) according to the manufacturer's instructions. Cells were counted in 4-8 fields for each treatment condition.
# [2] = molecular target: T1, Shaker channel with engineered cysteine (E422C) (Drosophila melanogaster, UniProt P08510, DEL6-46/E422C); test: PAL photoswitching, whole-cell patch clamp in HEK293 cells; format: cell-based; conditions: n=6
# T1 construct: expressed in transfected cells; host or cells: HEK293
# T1 sequence (P08510 other isoform, or with tags, fused parts or gaps DEL6-46/E422C): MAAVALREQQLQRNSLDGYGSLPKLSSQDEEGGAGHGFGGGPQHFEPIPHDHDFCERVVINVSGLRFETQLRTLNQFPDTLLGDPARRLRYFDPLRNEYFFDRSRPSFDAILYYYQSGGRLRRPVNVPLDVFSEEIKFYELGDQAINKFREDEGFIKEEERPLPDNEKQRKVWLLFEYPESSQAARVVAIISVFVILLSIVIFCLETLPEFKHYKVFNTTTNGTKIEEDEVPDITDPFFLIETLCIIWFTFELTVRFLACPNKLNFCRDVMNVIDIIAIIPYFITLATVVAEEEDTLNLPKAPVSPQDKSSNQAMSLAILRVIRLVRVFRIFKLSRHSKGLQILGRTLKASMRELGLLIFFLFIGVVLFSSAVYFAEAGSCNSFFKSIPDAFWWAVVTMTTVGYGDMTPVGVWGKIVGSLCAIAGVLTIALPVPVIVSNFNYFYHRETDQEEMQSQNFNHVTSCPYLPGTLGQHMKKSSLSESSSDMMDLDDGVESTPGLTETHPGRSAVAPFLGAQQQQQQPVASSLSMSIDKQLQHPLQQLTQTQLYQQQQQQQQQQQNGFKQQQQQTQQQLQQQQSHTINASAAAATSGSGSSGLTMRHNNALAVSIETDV
# Experimental: (§1) Cell culture and transfection. HEK293 cells were grown in DMEM containing 5% fetal bovine serum, at 37° C., 7% CO2. For electrophysiology, cells were plated at 12×10^5 cells/cm^2 on poly-L-lysine coated coverslips and transfected using the calcium phosphate method. Recordings were performed 24-36 hours after transfection.
# (§2) PAL attachment. HEK293 and hippocampal cells were rinsed in extracellular solution containing in mM: 138 NaCl, 1.5 KCl, 1.2 MgCl2, 2.5 CaCl2, 5 HEPES, 10 glucose and incubated at 37° C. in the dark with 200-250 μM PAL for 15 minutes. For slices, AAQ was diluted to 200 μM in aCSF and treatment was performed in the dark at room temperature for 10 minutes.
# (§3) Electrophysiological recording. Recordings from HEK293 and hippocampal neurons were made in the whole-cell patch clamp configuration using a PC-501A amplifier (Warner Instruments). Pulse protocols and measurements were carried out with pCLAMP and a Digidata 1322 interface (Axon Instruments). For voltage-clamp experiment, cells were held at −70 mV. Data was recorded at 20 kHz and filtered at 2 kHz. Recording pipettes with 2.5-4 MΩ resistance were filled with intracellular solution containing in mM: 10 NaCl, 135 K-gluconate, 10 HEPES, 2 MgCl2, 2 MgATP, 1 EGTA, pH 7.4.
# (§4) Illumination was provided using a xenon lamp (Sutter Instruments) with narrow band pass filters (380 BP10 for UV and 500 BP5 for visible light respectively). Excitation filters were changed using a lambda 10-2 filter changer (Sutter Instruments) controlled via pCLAMP software.
# (§5) Percent photoswitching was defined as the difference between current in UV and visible light divided by current in UV. All data shown in bar graphs are averages±standard error of the mean.
# wild-type Shaker (E422) = molecular target: T2, wild-type Shaker (E422) (Drosophila melanogaster, UniProt P08510, DEL6-46); test: as above; format: cell-based; conditions: n=6
# T2 construct: expressed in transfected cells; host or cells: HEK293
# T2 sequence (P08510 other isoform, or with tags, fused parts or gaps DEL6-46): as the sequence (P08510 other isoform, or with tags, fused parts or gaps DEL6-46/E422C) above, with C381E counted along it
# Experimental: as §1, §2, §3, §4, §5
# rat retina = test: AAQ injection into the rat eye (ERG, retinal toxicity); format: in vivo
# Experimental: Rats were dark-adapted overnight, and the entire procedure was done under very dim red light. Rats were anesthetized and placed in a standard electroretinogram (ERG) setup. Recording electrodes were embedded in contact-like cups, which were mounted onto each eye with a conductive adherent fluid. Reference electrodes were placed in the mouth. A light source emitted brief flashes of white light at various intensities. The electrical response of the retina to each light flash was recorded; three trials per intensity were averaged together. Under normal conditions, the ERG will consist of a small downward deflection (A-wave), which reflects the activity of photoreceptors, and a larger upward deflection (B-wave), which reflects the activity of bipolar cells.
# Purkinje neurons = test: Loose-patch extracellular recording in cerebellar slices; format: cell-based, rat; conditions: 200 μM for 10 minutes; full-field 360 nm light; n=5
# Experimental: Brain Slice Preparation. Parasagittal cerebellar slices were prepared using standard techniques approved by the UCLA Animal Care Committee. […] PAL attachment. […] For cerebellar slices, neuronal cell bodies were visualized using an upright microscope with a 40× water immersion lens and equipped with an infrared-DIC enhancement. Loose-patch extracellular recordings were performed using an Axopatch 200B amplifier (Axon Instruments). Electrophysiological recordings were filtered at 1 KHz and digitized at 2-4 KHz. Pipettes were typically 1.4-2.0 MΩ for recordings from PNs and 3.0-3.5 MΩ for interneurons and filled with aCSF. […] All recordings were performed at room temperature. […] Excitation filters were changed using a lambda 10-2 filter changer (Sutter Instruments) controlled via pCLAMP software.
# basket cells = test: as above; format: cell-based, rat; conditions: 500 nm light; with AMPA, NMDA and GABAA receptor antagonists; n=6
# Experimental: Brain Slice Preparation. Parasagittal cerebellar slices were prepared using standard techniques approved by the UCLA Animal Care Committee. The cerebellum was removed from the cranium of a 14-20 day old Sprague-Dawley rat, mounted on an agar support and sectioned parasagitally using a vibrotome (Leica VT-1000) while submerged in cold (<4° C.) artificial cerebrospinal fluid (aCSF) containing in mM: 119 NaCl, 26 NaHCO3, 11 glucose, 2.5 KCl, 2.5 CaCl2, 1.3 MgCl2, and 1 NaH2PO4 and saturated with 95% O2 and 5% CO2 Following sectioning, the […] slices were stored in 35° C. aCSF for 30 minutes and brought to room temperature for subsequent electrophysiological experiments.
# as §2
# For cerebellar slices, neuronal cell bodies were visualized using an upright microscope with a 40× water immersion lens and equipped with an infrared-DIC enhancement. Loose-patch extracellular recordings were performed using an Axopatch 200B amplifier (Axon Instruments). Electrophysiological recordings were filtered at 1 KHz and digitized at 2-4 KHz. […]
# [3] = tested on: voltage-gated outward current (endogenous K+ channels) in cultured hippocampal neurons; test: Photocontrol of K+ current in cultured hippocampal neurons; format: cell-based, rat; conditions: 200 μM, 15 min in the dark
# Experimental: Hippocampal neurons were prepared from neonatal Sprague-Dawley rats according to standard procedures (Goslin) and grown on poly-L-lysine coated coverslips in MEM supplemented with 5% fetal bovine serum, B27 (Invitrogen), glutamine and serum extender (BD Biosciences). Animal care and experimental protocols were approved by the UC Berkeley Animal Care and Use Committee. Recordings were performed 9-16 days after plating. The Shaker construct also contains an N-terminal deletion (Δ6-46) to minimize fast inactivation.
# as §2
# as §3, with “Recording pipettes with 2.5-4 MΩ resistance were filled with intracellular solution containing in mM: 10 NaCl, 135 K-gluconate, 10 HEPES, 2 MgCl2, 2 MgATP, 1 EGTA, pH 7.4.” left out
structure (smiles),measurement,setting,value
C=CC(=O)Nc1ccc(/N=N/c2ccc(NC(=O)C[N+](CC)(CC)CC)cc2)cc1 [AAQ],death of neurons,[1]; 15 min,~10%
same,loss of neurons,[1]; 60 min,~15%
same,fraction of current that could be photoswitched,[2],39±1%
same,fraction of current that could be photoswitched,wild-type Shaker (E422),48±2%
same,toxic consequences on rat retina (ERG),rat retina; 7 days post injection,without toxic consequences
same,effects on retinal neurons after injection into the vitreous humor,rat retina; rat eye,no detectable deleterious effects
same,increase in firing frequency,Purkinje neurons,42±12%
same,enhancement of firing frequency,basket cells,324±160%
same,percent of the outward current that could be photoswitched,[3],63±8%
